From patent US8618094B2, “Fused substituted aminopyrrolidine derivative” (Daiichi Sankyo Company, Limited, priority 2007, dated 2013)
In brackets after ≈: the same amount, converted by molar mass. Like-named read-outs stand apart in the source and are kept apart here.

How the values were obtained:
S. epidermidis 56500 = experiment: Antibacterial activity (MIC), standard method of the Japanese Society of Chemotherapy; format: cell-based; conditions: Staphylococcus epidermidis
Protocol: (§1) Antibacterial activity of the compounds of the present invention was measured in accordance with the standard method specified by the Japanese Society of Chemotherapy.

E. cloacae 03400 = experiment: as above; format: cell-based; conditions: Enterobacter cloacae
Protocol: as §1

E. faecalis 19433 = experiment: as above; format: cell-based; conditions: Enterococcus faecalis
Protocol: as §1

S. pneumoniae 104835 = experiment: as above; format: cell-based; conditions: Streptococcus pneumoniae
Protocol: as §1

S. pneumoniae J24 = experiment: as above; format: cell-based; conditions: Streptococcus pneumoniae
Protocol: as §1

H. influenzae ATCC49247 = experiment: as above; format: cell-based; conditions: Haemophilus influenzae
Protocol: as §1

K. pneumoniae TYPE 1 = experiment: as above; format: cell-based; conditions: Klebsiella pneumoniae, TYPE1
Protocol: as §1

S. aureus 870307 = experiment: as above; format: cell-based; conditions: Staphylococcus aureus
Protocol: as §1

P. mirabilis 08103 = experiment: as above; format: cell-based; conditions: Proteus mirabilis
Protocol: as §1

[1] = test system: M(B). Caterrhalis ATCC25238; experiment: as above; format: cell-based
Protocol: as §1

P. aeruginosa PAO1 = experiment: as above; format: cell-based; conditions: Pseudomonas aeruginosa
Protocol: as §1

S. aureus FDA 209-P = experiment: as above; format: cell-based; conditions: Staphylococcus aureus, FDA209
Protocol: as §1

E. coli NIHJ = experiment: as above; format: cell-based; conditions: Escherichia coli
Protocol: as §1

S. marcescens 10100 = experiment: as above; format: cell-based; conditions: Serratia marcescens
Protocol: as §1

[2] = test system: S. pyogenes JCM5674(ATCC12344); experiment: as above; format: cell-based; conditions: Streptococcus pyogenes
Protocol: as §1

mouse bone marrow = experiment: Mouse bone marrow micronucleus test after intravenous administration; format: in vivo
Description: The compound represented by the formula 365 was confirmed to be positive for induction of micronuclei in a mouse bone marrow micronucleus test after intravenous administration.

[3] = Mouse phototoxicity test after intravenous administration; format: in vivo
[4] = H. influenzae ATCC49247 (first half of Table 2), read-out: MIC, H. influenzae ATCC49247
[5] = M(B). Caterrhalis ATCC25238 (first half of Table 2), read-out: MIC, M(B). Caterrhalis ATCC25238

| SMILES | MIC (S. epidermidis 56500) | MIC (E. cloacae 03400) | MIC (E. faecalis 19433) | MIC (S. pneumoniae 104835) | MIC (S. pneumoniae J24) | MIC (H. influenzae ATCC49247; [4]) | MIC (K. pneumoniae TYPE 1) | MIC (S. aureus 870307) | MIC (P. mirabilis 08103) | MIC [1, 5] | MIC (P. aeruginosa PAO1) | MIC (S. aureus FDA 209-P) | MIC (E. coli NIHJ) | MIC (S. marcescens 10100) | MIC [2] | melting point | MIC (H. influenzae ATCC49247; ATCC 25238 / ATCC 49247, H. influenzae ATCC25238 as printed (second half of Table 2), read-out: MIC, H. influenzae ATCC25238) | MIC ([1]; M(B). Caterrhalis [sic] ATCC49247 (Table 2), read-out: MIC, M(B). Caterrhalis ATCC49247) | induction of micronuclei (mouse bone marrow) | phototoxicity [3] |
| --- | --- | --- | --- | --- | --- | --- | --- | --- | --- | --- | --- | --- | --- | --- | --- | --- | --- | --- | --- | --- |
| N[C@@]12CCC[C@@H]1CN(c1c(F)cc3c(=O)c(C(=O)O)cn(C4CC4)c3c1F)C2 [formula 365, reference compound] |  |  |  |  |  |  |  |  |  |  |  |  |  |  |  |  |  |  | positive | positive |
| COc1c(N2C[C@]3(N)CCC[C@]3(F)C2)c(F)cc2c(=O)c(C(=O)O)cn([C@@H]3C[C@@H]3F)c12 [Example 15, 7-[(1R,5S)-1-Amino-5-fluoro-3-azabicyclo[3.3.0]octan-3-yl]-6-fluoro-1-[(1R,2S)-2-fluorocyclopropan-1-yl]-1,4-dihydro-8-methoxy-4-oxoquinoline-3-carboxylic acid] | 0.05 µg/mL (≈ 0.114 µM) | 0.025 µg/mL (≈ 0.0572 µM) | 0.2 µg/mL (≈ 0.457 µM) | 0.39 µg/mL (≈ 0.892 µM) | 0.05 µg/mL (≈ 0.114 µM) | ≤ 0.003 µg/mL | 0.05 µg/mL (≈ 0.114 µM) | 0.39 µg/mL (≈ 0.892 µM) | 0.025 µg/mL (≈ 0.0572 µM) | 0.025 µg/mL (≈ 0.0572 µM) | 0.78 µg/mL (≈ 1.78 µM) | 0.012 µg/mL (≈ 0.0274 µM) | 0.006 µg/mL (≈ 0.0137 µM) | 0.2 µg/mL (≈ 0.457 µM) | 0.05 µg/mL (≈ 0.114 µM) | 191 to 195 °C (dec.) |  |  |  |  |

Second part, led by results:

| MIC (S. epidermidis 56500) | MIC (E. cloacae 03400) | MIC (E. faecalis 19433) | MIC (S. pneumoniae 104835) | MIC (S. pneumoniae J24) | MIC (H. influenzae ATCC49247; [4]) | MIC (K. pneumoniae TYPE 1) | MIC (S. aureus 870307) | MIC (P. mirabilis 08103) | MIC [1, 5] | MIC (P. aeruginosa PAO1) | MIC (S. aureus FDA 209-P) | MIC (E. coli NIHJ) | MIC (S. marcescens 10100) | MIC [2] | melting point | MIC (H. influenzae ATCC49247; ATCC 25238 / ATCC 49247, H. influenzae ATCC25238 as printed (second half of Table 2), read-out: MIC, H. influenzae ATCC25238) | MIC ([1]; M(B). Caterrhalis [sic] ATCC49247 (Table 2), read-out: MIC, M(B). Caterrhalis ATCC49247) | SMILES | induction of micronuclei (mouse bone marrow) | phototoxicity [3] |
| --- | --- | --- | --- | --- | --- | --- | --- | --- | --- | --- | --- | --- | --- | --- | --- | --- | --- | --- | --- | --- |
| 0.1 µg/mL (≈ 0.24 µM) | 0.025 µg/mL (≈ 0.0599 µM) | 0.1 µg/mL (≈ 0.24 µM) | 0.39 µg/mL (≈ 0.934 µM) | 0.05 µg/mL (≈ 0.12 µM) | 0.006 µg/mL (≈ 0.0144 µM) | 0.1 µg/mL (≈ 0.24 µM) | 0.78 µg/mL (≈ 1.87 µM) | 0.025 µg/mL (≈ 0.0599 µM) | 0.05 µg/mL (≈ 0.12 µM) | 0.39 µg/mL (≈ 0.934 µM) | 0.025 µg/mL (≈ 0.0599 µM) | 0.025 µg/mL (≈ 0.0599 µM) | 0.2 µg/mL (≈ 0.479 µM) | 0.1 µg/mL (≈ 0.24 µM) | 206 to 208 °C |  |  | COc1c(N2C[C@H]3CC=C[C@@]3(N)C2)c(F)cc2c(=O)c(C(=O)O)cn([C@@H]3C[C@@H]3F)c12 [Example 24, 7-[(1S,5R)-1-Amino-3-azabicyclo[3.3.0]oct-7-en-3-yl]-6-fluoro-1-[(1R,2S)-2-fluorocyclopropyl]-8-methoxy-1,4-dihydro-4-oxoquinoline-3-carboxylic acid] |  |  |
| 0.05 µg/mL (≈ 0.119 µM) | 0.012 µg/mL (≈ 0.0286 µM) | 0.1 µg/mL (≈ 0.238 µM) | 0.39 µg/mL (≈ 0.93 µM) | 0.05 µg/mL (≈ 0.119 µM) | 0.006 µg/mL (≈ 0.0143 µM) | 0.1 µg/mL (≈ 0.238 µM) | 0.78 µg/mL (≈ 1.86 µM) | 0.05 µg/mL (≈ 0.119 µM) | 0.025 µg/mL (≈ 0.0596 µM) | 0.78 µg/mL (≈ 1.86 µM) | 0.012 µg/mL (≈ 0.0286 µM) | 0.025 µg/mL (≈ 0.0596 µM) | 0.1 µg/mL (≈ 0.238 µM) | 0.025 µg/mL (≈ 0.0596 µM) | 169 to 172 °C |  |  | COc1c(N2C[C@@H]3CCC[C@]3(N)C2)c(F)cc2c(=O)c(C(=O)O)cn([C@@H]3C[C@@H]3F)c12 (single isomer, unassigned) [Example 11, 7-{(1R*,5S*)-1-Amino-3-azabicyclo[3.3.0]octan-3-yl}-6-fluoro-1-[(1R,2S)-2-fluorocyclopropyl]-8-methoxy-1,4-dihydro-4-oxoquinoline-3-carboxylic acid] | negative | negative |
| 0.025 µg/mL (≈ 0.0579 µM) | 0.025 µg/mL (≈ 0.0579 µM) | 0.1 µg/mL (≈ 0.232 µM) | 0.2 µg/mL (≈ 0.464 µM) | 0.025 µg/mL (≈ 0.0579 µM) | 0.012 µg/mL (≈ 0.0278 µM) | 0.2 µg/mL (≈ 0.464 µM) | 0.1 µg/mL (≈ 0.232 µM) | 0.05 µg/mL (≈ 0.116 µM) | 0.025 µg/mL (≈ 0.0579 µM) | 0.78 µg/mL (≈ 1.81 µM) | 0.006 µg/mL (≈ 0.0139 µM) | 0.025 µg/mL (≈ 0.0579 µM) | 0.2 µg/mL (≈ 0.464 µM) | 0.025 µg/mL (≈ 0.0579 µM) | 182 to 203 °C (dec.) |  |  | COc1c(N2C[C@H]3C4(CC4)C[C@@]3(N)C2)c(F)cc2c(=O)c(C(=O)O)cn([C@@H]3C[C@@H]3F)c12 [Example 10, 7-[(1S,5R)-1-Amino-6-spirocyclopropane-3-azabicyclo[3.2.0]heptan-3-yl]-1-[(1R,2S)-2-fluorocyclopropyl]-6-fluoro-1,4-dihydro-8-methoxy-4-oxoquinoline-3-carboxylic acid] |  |  |
| 0.025 µg/mL (≈ 0.0596 µM) | 0.006 µg/mL (≈ 0.0143 µM) | 0.1 µg/mL (≈ 0.238 µM) | 0.39 µg/mL (≈ 0.93 µM) | 0.05 µg/mL (≈ 0.119 µM) |  | 0.025 µg/mL (≈ 0.0596 µM) | 0.2 µg/mL (≈ 0.477 µM) | 0.025 µg/mL (≈ 0.0596 µM) |  | 0.39 µg/mL (≈ 0.93 µM) | 0.012 µg/mL (≈ 0.0286 µM) | ≤ 0.003 µg/mL | 0.05 µg/mL (≈ 0.119 µM) | 0.05 µg/mL (≈ 0.119 µM) | 159 to 161 °C | ≤ 0.003 µg/mL | 0.006 µg/mL (≈ 0.0143 µM) | Cc1c(N2C[C@@H]3CCOC[C@@]3(N)C2)c(F)cc2c(=O)c(C(=O)O)cn([C@@H]3C[C@@H]3F)c12 [Example 44, 7-[(1S,6S)-1-Amino-3-oxa-8-azabicyclo[4,3,0]nonan-8-yl]-6-fluoro-1-[(1R,2S)-2-fluorocyclopropyl]-1,4-dihydro-8-methyl-4-oxoquinoline-3-carboxylic acid] |  |  |
